Data as given in ChEMBL document CHEMBL1212821 (J Med Chem, 2010).

Legend:
[1] = target: T1, Kinesin-like protein KIF11 (Homo sapiens, UniProt P52732); test: Inhibition of human kinesin Eg5
T1 sequence (P52732 whole entry): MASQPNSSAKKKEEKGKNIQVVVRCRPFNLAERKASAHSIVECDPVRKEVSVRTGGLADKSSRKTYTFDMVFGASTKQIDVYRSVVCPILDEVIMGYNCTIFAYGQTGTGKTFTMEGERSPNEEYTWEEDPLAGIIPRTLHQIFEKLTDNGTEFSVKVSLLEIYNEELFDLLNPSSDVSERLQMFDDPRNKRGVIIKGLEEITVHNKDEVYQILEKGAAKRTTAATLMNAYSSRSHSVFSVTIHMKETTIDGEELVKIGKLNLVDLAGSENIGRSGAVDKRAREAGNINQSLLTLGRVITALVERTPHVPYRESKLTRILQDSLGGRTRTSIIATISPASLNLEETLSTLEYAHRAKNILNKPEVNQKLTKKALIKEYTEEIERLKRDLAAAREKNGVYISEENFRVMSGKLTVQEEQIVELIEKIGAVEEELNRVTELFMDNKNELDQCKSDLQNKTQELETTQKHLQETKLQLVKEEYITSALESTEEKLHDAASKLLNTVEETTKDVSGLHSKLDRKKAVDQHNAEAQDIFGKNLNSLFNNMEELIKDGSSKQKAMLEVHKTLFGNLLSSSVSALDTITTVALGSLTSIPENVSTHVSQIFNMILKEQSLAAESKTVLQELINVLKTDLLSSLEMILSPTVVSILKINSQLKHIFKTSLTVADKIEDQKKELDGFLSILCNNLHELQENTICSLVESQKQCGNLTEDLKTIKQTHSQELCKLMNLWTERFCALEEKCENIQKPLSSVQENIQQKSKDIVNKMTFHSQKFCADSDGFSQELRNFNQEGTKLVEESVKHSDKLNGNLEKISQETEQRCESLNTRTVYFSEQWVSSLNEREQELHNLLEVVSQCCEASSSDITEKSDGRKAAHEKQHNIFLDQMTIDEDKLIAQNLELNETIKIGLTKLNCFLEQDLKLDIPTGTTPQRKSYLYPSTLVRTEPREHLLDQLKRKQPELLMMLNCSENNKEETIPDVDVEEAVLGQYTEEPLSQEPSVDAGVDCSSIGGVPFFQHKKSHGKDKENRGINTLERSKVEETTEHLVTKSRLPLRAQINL

HCT-116 = test: Antiproliferative activity against human HCT116 cells after 72 hrs by Alamar blue assay
[2] = Antiproliferative activity against human hTERT-HME1 cells after 72 hrs by Alamar blue assay
BXPC-3 = test: Antiproliferative activity against human BxPC3 cells after 72 hrs by Alamar blue assay
K562 = test: Antiproliferative activity against human K562 cells after 72 hrs by Alamar blue assay
NCI-H1299 = test: Antiproliferative activity against human NCI-H1299 cells after 72 hrs by Alamar blue assay
[3] = Antiproliferative activity against human KB3-1 cells after 72 hrs by Alamar blue assay; settings: KB 3-1, 72 h
[4] = Antiproliferative activity against human KBV1 cells overexpressing MDR1 after 72 hrs by Alamar blue assay; settings: KB-V1, 72 h
[5] = Drug resistant ratio of EC50 for human KBV1 cells overexpressing MDR1 to EC50 for KB3-1 cells; format: functional, cell-based
[6] = Antiproliferative activity against human KB3-1 cells after 72 hrs by Alamar blue assay in presence of zosuquidar; settings: KB 3-1, 72 h
[7] = Antiproliferative activity against human KBV1 cells overexpressing MDR1 after 72 hrs by Alamar blue assay in presence of zosuquidar; settings: KB-V1, 72 h

| SMILES | EC50 (HCT-116; Homo sapiens, HCT-116, 72 h) [µM] | EC50 (BXPC-3; Homo sapiens, BXPC-3, 72 h) [µM] | EC50 (K562; Homo sapiens, K562, 72 h) [µM] | EC50 (NCI-H1299; Homo sapiens, NCI-H1299, 72 h) [µM] | EC50 (HCT-116; hct-116) [µM] | EC50 (BXPC-3; bxpc-3) [µM] | EC50 (K562; k562) [µM] | EC50 (NCI-H1299; nci-h1299) [µM] | EC50 ([2]; Homo sapiens, HME1, 72 h) [µM] | EC50 ([2]; hme1) [µM] | also measured |
| --- | --- | --- | --- | --- | --- | --- | --- | --- | --- | --- | --- |
| CCOC(=O)C1=C(C)NC(=S)N[C@@H]1c1cccc(O)c1 |  |  |  |  |  |  |  |  |  |  | IC50 [1]: 30 µM |
| CC1=C(C(=O)c2cccc(F)c2)C(c2cccc(O)c2)NC(=S)N1C (stereo unspecified) | 1.29 | 2.84 | 2.73 | 2.77 |  |  |  |  | 2.82 |  |  |
| CC1=C(C(=O)c2ccc(F)c(F)c2)C(c2cccc(O)c2)NC(=S)N1C (racemic) |  |  |  |  | 0.387 | 0.601 | 1.15 | 1.35 |  | 0.247 | EC50 [3]: 0.832 µM; EC50 [4]: 2.08 µM; ratio [5]: 2.5; EC50 [6]: 0.8 µM; EC50 [7]: 0.671 µM |
| CC1=C(C(=O)c2ccc(F)c(F)c2)C(c2cccc(O)c2)NC(=S)N1C (stereo in doubt; form 1) |  |  |  |  | 15.2 | 33.7 | 26.6 | 33 |  | > 0.1 |  |
| CC1=C(C(=O)c2ccccc2)C(c2cccc(O)c2)NC(=S)N1C (stereo in doubt; form 1) |  |  |  |  | 1.83 | 5 | 5.69 | 6.89 |  | 1.78 |  |
| CC1=C(C(=O)c2ccc(F)c(F)c2)C(c2cccc(O)c2)NC(=S)N1C (stereo in doubt; form 2) |  |  |  |  | 0.327 | 0.736 | 0.82 | 0.783 |  | 0.223 |  |
| CC1=C(C(=O)c2ccccc2)C(c2cccc(O)c2)NC(=S)N1C (stereo in doubt; form 2) |  |  |  |  | 6.5 | 14.4 | 11.4 | 18.1 |  | > 50 |  |
| CC[C@]1(O)C[C@@H]2CN(CCc3c([nH]c4ccccc34)[C@@](C(=O)OC)(c3cc4c(cc3OC)N(C)[C@H]3[C@@](O)(C(=O)OC)[C@H](OC(C)=O)[C@]5(CC)C=CCN6CC[C@]43[C@@H]65)C2)C1 [VINBLASTINE] |  |  |  |  |  |  |  |  |  |  | EC50 [3]: 0.0126 µM; EC50 [4]: 2.04 µM; ratio [5]: 162; EC50 [6]: 0.0085 µM; EC50 [7]: 0.013 µM |

Further lines, with some results ahead:

| EC50 (HCT-116; Homo sapiens, HCT-116, 72 h) [µM] | EC50 (BXPC-3; Homo sapiens, BXPC-3, 72 h) [µM] | EC50 (K562; Homo sapiens, K562, 72 h) [µM] | EC50 (NCI-H1299; Homo sapiens, NCI-H1299, 72 h) [µM] | EC50 (HCT-116; hct-116) [µM] | EC50 (BXPC-3; bxpc-3) [µM] | EC50 (K562; k562) [µM] | EC50 (NCI-H1299; nci-h1299) [µM] | SMILES | EC50 ([2]; Homo sapiens, HME1, 72 h) [µM] | EC50 ([2]; hme1) [µM] | also measured |
| --- | --- | --- | --- | --- | --- | --- | --- | --- | --- | --- | --- |
| 0.951 | 2.16 | 2.62 | 2.39 |  |  |  |  | CC1=C(C(=O)c2ccc(F)cc2)C(c2cccc(O)c2)NC(=S)N1C (stereo unspecified) | 2.54 |  |  |
| 1.81 | 2.07 | 4.78 | 4.9 |  |  |  |  | O=C1CCCC2=C1C(c1cccc(O)c1)NC(=S)N2 (racemic) | 2.44 |  |  |
| 24.2 | > 0.1 | > 0.1 | > 0.1 |  |  |  |  | CCOC(=O)C1=C(C)NC(=S)NC1c1cccc(O)c1 (racemic) [MONASTROL] | 45.1 |  | EC50 [3]: 85.1 µM; EC50 [4]: 99.1 µM; ratio [5]: 1.2; EC50 [6]: 56.5 µM; EC50 [7]: 45.4 µM |
|  |  |  |  | 1.74 | 3.6 | 3.7 | 4.61 | CC1=C(C(=O)c2ccccc2)C(c2cccc(O)c2)NC(=S)N1C (stereo in doubt; form 3) |  | 1.19 |  |
